According to patent publication US20030073654A1, “Stabilized transient gene expression” (Genespan Corporation, priority 1996, published 2003):

Experiments:
SW480 cells [1] = experiment: Assay for cytotoxicity (trypan blue viability, 8 day static culture); assay type: cell-based, human; settings: Table 13, protocol of Example 10
Experimental: 1. […] However, it should be understood that various types of cells vary in their sensitivity to different chemical compounds. Thus, while SW480 cells may be used as a convenient tool for determining biocompatible concentrations of the chemical compounds, it may be necessary to empirically adjust the concentrations determined with SW480 cells in order to optimize biocompatibility with other types of cells.
A number of chemical compounds were tested in 6-well plates according to the protocol described in Example 1 to determine the relationship between their cytotoxicity and their ability to promote the uptake and expression of foreign genes in SW480 cells. Unless otherwise noted, except for the control, all plates contained 4 mM L-glutamine as well as gentamicin to retard bacterial growth.
Cytotoxicity assays were performed as follows. SW480 cells (approximately 1×10^6 cells per well) were plated in 1 ml of RPMI in 6-well culture dishes at day zero in the presence of the chemical compound whose cytotoxicity was being tested. Twenty-four hours after seeding the wells, the RPMI medium was removed, and liposomes containing foreign DNA were added to the culture in 1 ml of OPTI-MEM medium, as described in Example 1. The transfection medium also contained the chemical compounds whose cytotoxicity was being tested. Control plates were included that were identical to the test plates, except that the test compounds were not present in the culture medium. Test and control cultures were grown under “static” conditions, i.e., the plates were not shaken, rotated, or otherwise agitated. Each day for a total of 8 days, the cells from one test well and one control well were harvested and viability assessed by staining with trypan blue. […] The chondroitin sulfate used here was as in Example 2.

SW480 cells [2] = experiment: Influence of polysaccharide size/type on transient expression (protocol of plate #6, polysaccharide substituted for chondroitin sulfate); assay type: cell-based, human; settings: for FACTOR G / FACTOR K / FACTOR X / Total β-gal (ng) from 2 × 10^4 Cells in 14 Days: Table 13; for effectiveness in enhancing transient expression: running text of Example 10
Experimental: A 15 plate experiment was conducted in which the chemical compounds indicated in Table 9 were added to the culture medium of SW480 cells that were transfected in 6-well plates as detailed in Example 1. […] The chondroitin sulfate used for these experiments was as in Example 2. The most efficacious formulations, in order of their effectiveness, were those used in plates 6, 3, 13 and 14. […] The following experiments were conducted to determine the effects of polysaccharide size on their effectiveness in enhancing transient expression. […] The chondroitin sulfate used for these comparisons was obtained either from Biorelease, or was prepared by treating large (>20 kDa) chondroitin sulfate (Type A) with alkali, then acid. The size of the non-purchased preparations was determined by electrophoretic comparison with Biorelease 4 kDa chondroitin sulfate using PhastSystem gels in accord with the manufacturer's instructions (Pharmacia). The results are shown in Table 11, in which the ranges observed for X and […] in the four trials are shown in parentheses below the averages. […] Table 12 also presents the results of the Limulus amebocyte lysate (LAL) endotoxin assay, expressed as endotoxin units per ml (Eu/ml), which was performed on all media used before, during and after transfection, but before adding serum. This assay provides a quantitative measure for Gram-negative bacterial endotoxin in aqueous solutions. […] The LAL results in Table 12 are those for the post-transfection media, assayed prior to adding serum. All solutions used for these experiments were prepared in a hood using standard aseptic procedures.

[3] = test system: SW480 P3 (ATCC #CCL228) human colon carcinoma cells; experiment: Screening assay for enhancement of transient expression (β-galactosidase gene, liposomal transfection, 6-well plates); assay type: cell-based; settings: for G Factor (G14): Table 1, values without asterisk, days 4-14 after transfection; for X Factor / K Factor: Table 1; for X Factor: cumulative β-galactosidase vs control, first four days after transfection, compound at the mM given in the table; for K Factor: ratio of first order rate constants of change in expression, control vs compound
Source text: These parameters are called the “X” factor, the “G” factor, and the “K” factor. [formula]
This factor reflects the extent to which a chemical compound added to a transfected cell enhances stabilizes transient expression for the first four days following transfection. […] For example, if expression is doubled in the presence of a compound, […]. […] X may be calculated similarly when the agent in question is a mixture of more than one chemical compound.
Cumulative protein expression, i.e., the values for “A” and “C”, is measured by summing the values measured daily in aliquots of the cultured cells.
2. G factors. G factors differ from the X factor only with respect to the time period evaluated. For calculating a G factor, the amount of protein expressed is measured from days 4-7 or days 4-14, where day 0 is the day on which the foreign DNA is added to the cells. The subscripts denote which of the two time periods provided the basis for measurement. […] As for the X factor, [formula]
3. K factor. The K factor is the ratio of the rate constants for the change in the foreign DNA expression in control transfected cells and in cells exposed to a chemical compound of the subject invention. K is determined according to the following equation: [formula]
wherein “k(DNA)” is the first order rate constant for the change in concentration of the protein expressed from the transgenic DNA, which is expressing protein as a function of time, i.e., [formula]
Values for k(DNA) are derived by using a computer program that plots the log of the foreign protein concentration against time, using the results of transgenic protein measurements that begin about 24 hours after the foreign DNA has been added to the cell. […] However, the program calculates a “best fit” line for each data set, and determines the slope of that portion of the resulting line that corresponds to the period during which protein production is changing. […] Thus, the slope is calculated during this period of decline to provide values for k(DNA) and K that can be compared for the purpose of comparing the efficacy of different chemical compounds.
SW480 P3 (ATCC #CCL228) human colon carcinoma cells (typically, 1×10^6 cells) were plated in the wells of a 6-well tissue culture plate. The number of wells plated reflected the number of days post-transfection during which the experiment would proceed. Each well contained 1 ml of complete media from a 30 ml stock solution containing: 26.4 ml RPMI tissue culture medium, 4 mM L-glutamine, 3.0 ml fetal bovine serum, and 10 μg/ml gentamicin. Cells were cultured at 37° C. in a CO2 incubator with 10% CO2 for 24 hours after being plated, during which time the cells adhered to the plates.
After the 24 hour pre-incubation step, the transfection step was carried out by removing the RPMI and adding 900 μL OPTI-MEM® (Gibco) medium containing 2 μg of VR1412 DNA (Vical, Inc., San Diego, Calif.), which expresses the bacterial β-galactosidase gene under the control of a cytomegalovirus promoter, and 8 μg of a mixture of cationic lipid (1,2-dimyristyloxyproply-3-dimethyl-hydroxyethyl ammonium bromide (e.g., “DMRIE/DOPE”) mixed in equimolar proportions with dioleoylphosphatidylethanolamine) to yield a lipid:DNA molar ratio of 0.99:1. It should be noted that typical transient transfection protocols employ 10 μg DNA per 10^6 cells, but the protocol described here uses less DNA in order to reduce toxicity to the cells. The plates were then incubated for 4 hours at 37° C.
After the 4 hour incubation step, 100 μl of heat deactivated fetal bovine serum (to stop transfection), plus 12.0 μl of 50 mg/ml gentamicin were added to each well.

[4] = pH of aqueous solutions of the compounds; assay type: physicochemical; settings: stock solutions prepared in culture media diluted with deionized water
Experimental: The pH values shown in Table 1 were determined in aqueous solutions made by diluting stock solutions prepared in culture media with deionized water.

[5] = Table 1, values marked with asterisk, days 4-7 after transfection

Compound | G Factor (G14) [3] | X Factor [3] | pH (H20) [4] | K Factor [3] | further results
O=C[C@@H](O)[C@@H](O)[C@H](O)[C@H](O)CO [Mannose] |  |  |  |  | Cytotoxic (SW480 cells [1]): No; FACTOR G (SW480 cells [2]): 23.5; FACTOR K (SW480 cells [2]): 1.0; FACTOR X (SW480 cells [2]): −23.6; Total β-gal (ng) from 2 × 10^4 Cells in 14 Days (SW480 cells [2]): 730.4 ng; effectiveness in enhancing transient expression (SW480 cells [2]): effective in enhancing transient expression
CC(=O)N[C@H]1C(O)O[C@H](CO)[C@H](OS(=O)(=O)O)[C@@H]1O[C@@H]1OC(C(=O)O)=C[C@H](O)[C@H]1O (some centres unmarked) [Chondro ΔDi-4S] |  |  |  |  | Cytotoxic (SW480 cells [1]): Yes; Cytotoxic (SW480 cells [1]; listed as disaccharide units derived from Type A): cytotoxic; FACTOR G (SW480 cells [2]): 40.1; FACTOR K (SW480 cells [2]): 0.4; FACTOR X (SW480 cells [2]): −28.2; Total β-gal (ng) from 2 × 10^4 Cells in 14 Days (SW480 cells [2]): 184.7 ng
O=C(O)[C@@H]1CCCN1 [PROLINE] | 21 | −22 | 7.71 |  | 
O=C(O)c1ccccc1 [BENZOIC ACID] | 28 | −3.1 | 4.21 | 1 | 
Nc1nc2ncc(CNc3ccc(C(=O)N[C@@H](CCC(=O)O)C(=O)O)cc3)nc2c(=O)[nH]1 [FOLIC ACID] | 24 | −1.4 | 6 |  | 
CSCC[C@H](NC=O)C(=O)O [N-FORMYL-L-METHIONINE] | 63 | 26 | 4.34 |  | 
CC(=O)N[C@H]1C(O)O[C@H](COS(=O)(=O)O)[C@H](O)[C@@H]1O[C@@H]1OC(C(=O)O)=C[C@H](O)[C@H]1O (some centres unmarked) [Chondro ΔDi-6S] |  |  |  |  | Cytotoxic (SW480 cells [1]): No; FACTOR G (SW480 cells [2]): 39.0; FACTOR K (SW480 cells [2]): 1.3; FACTOR X (SW480 cells [2]): −32.7; Total β-gal (ng) from 2 × 10^4 Cells in 14 Days (SW480 cells [2]): 932.2 ng; effectiveness in enhancing transient expression (SW480 cells [2]): better results than the controls
NCCC(=O)O [β-ALANINE] | 33 | 0.2 | 8.38 | 1 | 
O=C(O)CCC(=O)C(=O)O [α-KE[…]] | 53 | 7.28 | 3.75 |  | 
O=S(=O)(O)CC(O)CN(CCO)CCO (centres unmarked) [′3-[BIS(2HYDROXYETHYL AMINO)]-2-HYDROXYL-′1-PROPANE SULFONIC ACID] | −10 | −55 | 6.81 |  | 
Nc1cccc(S(=O)(=O)O)c1 [3-AMINO BENZENE SULFONIC ACID] | 32 | −19 | 3.8 |  | 
NCCS(=O)(=O)O [TAURINE] | 34 | −20 | 7.88 | 2 | 
N[C@@H](CCC(=O)N[C@@H](CS)C(=O)NCC(=O)O)C(=O)O [GLUTATHIONE] | 34 | 2 | 3.58 | 1 | pH (H20) ([4]; listed as glutathione): ~3
N[C@@H](CS)C(=O)O [CYSTEINE] | −50 | −35 | 7.24 |  | 
N[C@@H](CC(=O)O)C(=O)O [ASPARTIC ACID] | −45 |  | 5.75 |  | G Factor (G7) [3, 5]: −17
N[C@@H](CCC(=O)O)C(=O)O [GLUTAMIC ACID] |  |  | 4.2 | 2 | 
N=C(N)NCCC[C@H](N)C(=O)O [L-ARGININE] | 57 |  | 8.66 |  | G Factor (G7) ([3]; Table 1, days 4-7 after transfection): 11
CC[C@H](C)[C@H](N)C(=O)O [ISOLEUCINE] | 30 | −119 | 6.99 |  | 
CN(CC(=O)O)C(=N)N [CREATINE] | 28 | 0.34 | 7.54 |  | 
C[C@@H](O)[C@H](N)C(=O)O [L-THREONINE] | 40 | 28 | 8.14 | 1 | 
MELANIN |  |  | 3.45 |  | effect on transient expression [3]: significantly suppress transient expression
Nc1ccc(C(=O)O)cc1 [4-AMINO-BENZOIC ACID] | −12 | 52, 52 | 7.67 | 1, 1 | G Factor (G7) [3, 5]: 96
NCC(=O)O [GLYCINE] | 40 | −.34 | 7.27 | 2 | 
CCC(N)C(=O)O (stereo not drawn) [α-AMINO-n-BUTYRIC ACID] | 35 | −.19 | 7.58 | 1 | 
CC(C)C[C@H](N)C(=O)O [LEUCINE] | 32 | −13 | 7.88 |  | 
NCCC(=O)N[C@@H](Cc1cnc[nH]1)C(=O)O [CARNOSINE] | 35 | −8 | 8.32 |  | 
